We go through 8 molecules from PubChem BioAssay AID328 (DTP/NCI, 2004).

This assay relates to BDF1 mice, P388 leukemia ip, median survival T/C. Nature of the assay: NCI In Vivo Anticancer Drug Screen. Data for tumor model P388 Leukemia (intraperitoneal) in B6D2F1 (BDF1) mice. Particulars: endpoint: median survival time, higher = longer survival. In short, it runs like this:
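Each value expresses how treatment altered survival: treated-mouse outcome over vehicle-mouse outcome, both groups bearing the transplanted tumour.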

The mark [1] stands for this setting: dose: 100.0 mg/kg/injection, schedule: Q04DX003 (ip), vehicle: water.
Where [2] appears, read: dose: 6.25 mg/kg/injection, schedule: Q01DX009 (ip), vehicle: saline.
Where [3] appears, read: dose: 12.5 mg/kg/injection, schedule: Q01DX009 (ip), vehicle: saline.
[4] abbreviates: dose: 25.0 mg/kg/injection, schedule: Q04DX003 (ip), vehicle: saline.
Where [5] appears, read: dose: 25.0 mg/kg/injection, schedule: Q01DX009 (ip), vehicle: saline with Tween-80.
[6] abbreviates: dose: 50.0 mg/kg/injection, schedule: Q01DX009 (ip), vehicle: saline with Tween-80.
Where [7] appears, read: dose: 50.0 mg/kg/injection, schedule: Q04DX003 (ip), vehicle: saline with Tween-80.
[8] abbreviates: dose: 100.0 mg/kg/injection, schedule: Q04DX003 (ip), vehicle: saline with Tween-80.

Molecules are shown by their SMILES. Values joined by “and” are separate entries in the source; they are usually repeats but may differ in a detail not shown here. Identical values can stand only once. Inconclusive results and toxic doses are left out.

On to `COC(=O)/C=C/c1c[nH]c2nccnc12`, for which the T/C reads like this: (dose: 25.0 mg/kg/injection, schedule: Q01DX009 (ip), vehicle: water) 104 % of control; (dose: 50.0 mg/kg/injection, schedule: Q01DX009 (ip), vehicle: water) 90 % of control and 112 % of control; (dose: 100.0 mg/kg/injection, schedule: Q01DX009 (ip), vehicle: water) 97 % of control and 109 % of control; under setting [1], 86 % of control; (dose: 200.0 mg/kg/injection, schedule: Q01DX009 (ip), vehicle: water) 115 % of control; (dose: 200.0 mg/kg/injection, schedule: Q04DX003 (ip), vehicle: water) 102 % of control. The T/C by setting is: (dose: 300.0 mg/kg/injection, schedule: Q01DX009 (ip), vehicle: water) 106 % of control; (dose: 400.0 mg/kg/injection, schedule: Q01DX009 (ip), vehicle: water) 93 % of control; (dose: 400.0 mg/kg/injection, schedule: Q04DX003 (ip), vehicle: water) 102 % of control.
As for `COc1cc([N+](=O)[O-])c(C)cc1NC(=O)c1ccc(OC)c(OC)c1`, the T/C is 100 % of control (dose: 0.78 mg/kg/injection, schedule: Q01DX009 (ip), vehicle: saline); 115 % of control (dose: 1.56 mg/kg/injection, schedule: Q01DX009 (ip), vehicle: saline); 88 % of control (dose: 3.12 mg/kg/injection, schedule: Q01DX009 (ip), vehicle: saline); 86 % of control under setting [2].
As to `COc1ccc2c(c1C)CCC1(C(=O)O)CC(C)C(O)CC21` (stereo unspecified), the T/C by setting is: (dose: 50.0 mg/kg/injection, schedule: Q04DX003 (ip), vehicle: saline sonified) 95 % of control; (dose: 100.0 mg/kg/injection, schedule: Q04DX003 (ip), vehicle: saline sonified) 100 % of control; (dose: 200.0 mg/kg/injection, schedule: Q04DX003 (ip), vehicle: saline sonified) 100 % of control.
Regarding `C[Se]c1ncnc2c(C3OC(CO)C(O)C3O)[nH]nc12` (stereo unspecified), the T/C is 118 % of control (dose: 0.5 mg/kg/injection, schedule: Q01DX009 (ip), vehicle: saline with Tween-80); 90 % of control (dose: 1.0 mg/kg/injection, schedule: Q01DX009 (ip), vehicle: saline with Tween-80); 109 % of control (dose: 2.0 mg/kg/injection, schedule: Q01DX009 (ip), vehicle: saline with Tween-80); 100 % of control (dose: 4.0 mg/kg/injection, schedule: Q01DX009 (ip), vehicle: saline with Tween-80); 114 % of control under setting [2]; 90 % of control (dose: 8.0 mg/kg/injection, schedule: Q01DX009 (ip), vehicle: saline with Tween-80). For the same molecule, the T/C is 98 % of control under setting [3]; 98 % of control (dose: 12.5 mg/kg/injection, schedule: Q04DX003 (ip), vehicle: saline); 92 % of control under setting [4].
`O=P1(N(CCCl)CCCl)NCCCO1` (stereo unspecified): the T/C was 120 % of control under setting [2]; 227 % of control (dose: 10.0 mg/kg/injection, schedule: Q01DX010 (ip), vehicle: water); 167 % of control (dose: 10.0 mg/kg/injection, schedule: Q01DX015 (ip), vehicle: saline); 186 % of control (dose: 11.25 mg/kg/injection, schedule: Q01DX010 (ip), vehicle: saline); 124 % of control and 206 % of control under setting [3]; 202 % of control and 216 % of control (dose: 15.0 mg/kg/injection, schedule: Q01DX015 (ip), vehicle: saline). In addition, the T/C (dose: 20.0 mg/kg/injection, schedule: Q01DX010 (ip), vehicle: saline) is 235 % of control and 259 % of control and 280 % of control; the T/C (dose: 20.0 mg/kg/injection, schedule: Q01DX010 (ip), vehicle: water) was 272 % of control; the T/C (dose: 20.0 mg/kg/injection, schedule: Q01DX015 (ip), vehicle: saline) is 245 % of control and 219 % of control; the T/C (dose: 25.0 mg/kg/injection, schedule: Q01DX009 (ip), vehicle: saline) was 257 % of control and 165 % of control; the T/C (dose: 25.0 mg/kg/injection, schedule: Q01DX015 (ip), vehicle: saline) was 272 % of control and 349 % of control; the T/C under setting [4] is 150 % of control and 179 % of control. The T/C runs as follows: (dose: 25.0 mg/kg/injection, schedule: Q04DX003 (ip), vehicle: water) 283 % of control; (dose: 30.0 mg/kg/injection, schedule: Q01DX010 (ip), vehicle: saline) 272 % of control and 300 % of control (2×); (dose: 30.0 mg/kg/injection, schedule: Q01DX015 (ip), vehicle: saline) 356 % of control and 423 % of control; (dose: 31.3 mg/kg/injection, schedule: Q01DX001 (ip), vehicle: saline) 163 % of control; (dose: 37.5 mg/kg/injection, schedule: Q01DX001 (ip), vehicle: saline) 153 % of control; (dose: 50.0 mg/kg/injection, schedule: Q01DX001 (ip), vehicle: saline) 159 % of control and 175 % of control. For the same molecule, the T/C is 250 % of control and 111 % of control and 112 % of control (dose: 50.0 mg/kg/injection, schedule: Q01DX009 (ip), vehicle: saline); 258 % of control and 192 % of control (dose: 50.0 mg/kg/injection, schedule: Q04DX003 (ip), vehicle: saline); 111 % of control (dose: 50.0 mg/kg/injection, schedule: Q04DX003 (ip), vehicle: water); 218 % of control (dose: 50.0 mg/kg/injection, schedule: Q08DX002 (ip), vehicle: saline); 190 % of control (dose: 62.5 mg/kg/injection, schedule: Q01DX001 (ip), vehicle: saline); 258 % of control and 98 % of control (dose: 70.0 mg/kg/injection, schedule: Q04DX003 (ip), vehicle: saline). Besides, the T/C (dose: 75.0 mg/kg/injection, schedule: Q04DX003 (ip), vehicle: saline) was 557 % of control; the T/C (dose: 86.4 mg/kg/injection, schedule: Q01DX001 (ip), vehicle: saline) is 234 % of control and 117 % of control and 193 % of control; the T/C (dose: 89.0 mg/kg/injection, schedule: Q01DX001 (ip), vehicle: saline) is 197 % of control; the T/C (dose: 100.0 mg/kg/injection, schedule: Q01DX009 (ip), vehicle: saline) is 100 % of control and 112 % of control and 113 % of control; the T/C under setting [1] was 91 % of control; the T/C (dose: 100.0 mg/kg/injection, schedule: Q08DX002 (ip), vehicle: saline) is 267 % of control. Further, the T/C reads like this: (dose: 125.0 mg/kg/injection, schedule: Q01DX001 (ip), vehicle: saline) 293 % of control; (dose: 144.0 mg/kg/injection, schedule: Q01DX001 (ip), vehicle: saline) 297 % of control and 541 % of control and 198 % of control; (dose: 180.0 mg/kg/injection, schedule: Q01DX001 (ip), vehicle: water) 244 % of control; (dose: 200.0 mg/kg/injection, schedule: Q04DX003 (ip), vehicle: saline) 103 % of control; (dose: 200.0 mg/kg/injection, schedule: Q08DX002 (ip), vehicle: saline) 270 % of control; (dose: 240.0 mg/kg/injection, schedule: Q01DX001 (ip), vehicle: saline) 290 % of control and 544 % of control. The T/C runs as follows: (dose: 300.0 mg/kg/injection, schedule: Q01DX001 (ip), vehicle: water) 268 % of control; (dose: 400.0 mg/kg/injection, schedule: Q08DX002 (ip), vehicle: saline) 88 % of control; (dose: 500.0 mg/kg/injection, schedule: Q01DX001 (ip), vehicle: water) 252 % of control; (dose: 600.0 mg/kg/injection, schedule: Q01DX001 (ip), vehicle: saline) 54 % of control.
In the case of `CC(CO)(CI)[n+]1ccccc1` (stereo unspecified), the T/C is, setting by setting: under setting [5], 103 % of control; under setting [6], 107 % of control; under setting [7], 95 % of control; under setting [8], 100 % of control.
For the molecule `CC(C)NC(=O)c1ccccc1S(=O)c1ccccc1C(=O)NC(C)C`, the T/C is, setting by setting: under setting [6], 104 % of control; (dose: 100.0 mg/kg/injection, schedule: Q01DX009 (ip), vehicle: saline with Tween-80) 100 % of control; (dose: 200.0 mg/kg/injection, schedule: Q01DX009 (ip), vehicle: saline with Tween-80) 108 % of control.
As for `CCCCCCCCCCCCCCCC(=O)N(CCCN)C(C)CCCN(CC)CC` (stereo unspecified), the T/C reads like this: (dose: 12.5 mg/kg/injection, schedule: Q01DX009 (ip), vehicle: saline with Tween-80) 106 % of control; under setting [5], 99 % of control; under setting [7], 107 % of control; under setting [8], 93 % of control.
